Calls of active or inactive are those of the source. The calls are words filed in the database; no cut-off is given here.
Experiments:
[1] = tested on: Rattus norvegicus; experiment: In vivo inhibition of galactitol accumulation in diaphragm of rat at 53 mg/kg/day; type: functional
[2] = species on record: Rattus norvegicus; experiment: In vitro inhibition of sorbitol accumulation was measured in rat sciatic nerves incubated in the presence of 50 mM glucose at 10e-6 M concentration; type: functional, Sciatic nerve
[3] = tested on: Rattus norvegicus; experiment: In vivo inhibition of galactitol accumulation in sciatic nerves of rat at 53 mg/kg/day; Not significant; type: functional, organism-based; details: Sciatic nerve
[4] = target: Aldo-keto reductase family 1 member B1 (Bos taurus) (UniProt P16116); experiment: In vitro % decrease of aldose reductase measured in isolated partially purified bovine lens preparations at 10e-7 M concentration
[5] = species on record: Rattus norvegicus; experiment: In vitro inhibition of sorbitol accumulation was measured in rat sciatic nerves incubated in the presence of 50 mM glucose at 10e-5 M concentration; type: functional, Sciatic nerve
[6] = tested on: Rattus norvegicus; experiment: In vivo inhibition of galactitol accumulation in diaphragm of rat at 26 mg/kg/day; type: functional
[7] = tested on: Rattus norvegicus; experiment: In vivo inhibition of galactitol accumulation in sciatic nerves of rat at 52 mg/kg/day; Not significant; type: functional, organism-based; details: Sciatic nerve
[8] = target: Aldo-keto reductase family 1 member B1 (Bos taurus) (UniProt P16116); experiment: In vitro% decrease of aldose reductase was measured in isolated partially purified bovine lens preparations at 10e-7 M concentration
[9] = tested on: Rattus norvegicus; experiment: In vivo inhibition of galactitol accumulation in diaphragm of rat at 52 mg/kg/day; Not significant; type: functional, organism-based
[10] = tested on: Rattus norvegicus; experiment: In vivo inhibition of galactitol accumulation in diaphragm of rat at 10 mg/kg/day; type: functional
[11] = tested on: Rattus norvegicus; experiment: In vivo inhibition of galactitol accumulation in diaphragm of rat at 48 mg/kg/day; type: functional
[12] = tested on: Rattus norvegicus; experiment: In vivo inhibition of galactitol accumulation in sciatic nerves of rat at 48 mg/kg/day; type: functional; details: Sciatic nerve
[13] = tested on: Rattus norvegicus; experiment: In vivo inhibition of galactitol accumulation in sciatic nerves of rat at 10 mg/kg/day; type: functional; details: Sciatic nerve
[14] = tested on: Rattus norvegicus; experiment: In vivo inhibition of galactitol accumulation in diaphragm of rat at 24 mg/kg/day; type: functional
[15] = tested on: Rattus norvegicus; experiment: In vivo inhibition of galactitol accumulation in sciatic nerves of rat at 24 mg/kg/day; Not significant; type: functional, organism-based; details: Sciatic nerve
[16] = tested on: Rattus norvegicus; experiment: In vivo inhibition of galactitol accumulation in sciatic nerves of rat at 48 mg/kg/day; Not significant; type: functional, organism-based; details: Sciatic nerve
[17] = tested on: Rattus norvegicus; experiment: In vivo inhibition of galactitol accumulation in diaphragm of rat at 49 mg/kg/day; type: functional
[18] = tested on: Rattus norvegicus; experiment: In vivo inhibition of galactitol accumulation in sciatic nerves of rat at 49 mg/kg/day; type: functional; details: Sciatic nerve
[19] = tested on: Rattus norvegicus; experiment: In vivo inhibition of galactitol accumulation in sciatic nerves of rat at 49 mg/kg/day; Not significant; type: functional, organism-based; details: Sciatic nerve
[20] = tested on: Rattus norvegicus; experiment: In vivo inhibition of galactitol accumulation in sciatic nerves of rat at 27 mg/kg/day; Not significant; type: functional, organism-based; details: Sciatic nerve
[21] = tested on: Rattus norvegicus; experiment: In vivo inhibition of galactitol accumulation in diaphragm of rat at 27 mg/kg/day; type: functional
[22] = target: Aldo-keto reductase family 1 member B1 (Bos taurus) (UniProt P16116); experiment: In vitro % decrease of aldose reductase was measured in isolated partially purified bovine lens preparations at 10e-7 M concentration; Not active
[23] = tested on: Rattus norvegicus; experiment: In vivo inhibition of galactitol accumulation in sciatic nerves of rat at 5 mg/kg/day; type: functional; details: Sciatic nerve
[24] = tested on: Rattus norvegicus; experiment: In vivo inhibition of galactitol accumulation in diaphragm of rat at 5 mg/kg/day; type: functional
[25] = tested on: Rattus norvegicus; experiment: In vivo inhibition of galactitol accumulation in sciatic nerves of rat at 26 mg/kg/day; type: functional; details: Sciatic nerve
[26] = tested on: Rattus norvegicus; experiment: In vivo inhibition of galactitol accumulation in diaphragm of rat at 50 mg/kg/day; Not significant; type: functional, organism-based
[27] = tested on: Rattus norvegicus; experiment: In vivo inhibition of galactitol accumulation in sciatic nerves of rat at 50 mg/kg/day; Not significant; type: functional, organism-based; details: Sciatic nerve
[28] = tested on: Rattus norvegicus; experiment: In vivo inhibition of galactitol accumulation in sciatic nerves of rat at 20 mg/kg/day; Not significant; type: functional, organism-based; details: Sciatic nerve
[29] = tested on: Rattus norvegicus; experiment: In vivo inhibition of galactitol accumulation in sciatic nerves of rat at 24 mg/kg/day; type: functional; details: Sciatic nerve
[30] = tested on: Rattus norvegicus; experiment: In vivo inhibition of galactitol accumulation in diaphragm of rat at 20 mg/kg/day; Not significant; type: functional, organism-based
[31] = tested on: Rattus norvegicus; experiment: In vivo inhibition of galactitol accumulation in sciatic nerves of rat at 26 mg/kg/day; Not significant; type: functional, organism-based; details: Sciatic nerve

## COc1ccc2c(C(=S)N(C)CC(=O)O)cc(-c3ccccc3)cc2c1C(F)(F)F
[1]
  inhibition in vivo at 53 mg/kg/day: 82%
[2]
  Inhibition: 36%
[3]
  inhibition: inactive
[4]
  inhibition: 93%
[5]
  Inhibition: 87%

## COC(=O)N(CC(=O)O)C(=O)c1c(Cl)ccc2c(C(F)(F)F)c(OC)ccc12
[6]
  inhibition in vivo at 26 mg/kg/day: 68%
[2]
  Inhibition: 49%
[4]
  inhibition: 85%
[5]
  Inhibition: 75%

## COc1ccc2c(C(=O)N(C)CC(=O)O)cc(Cc3ccc(Br)cc3F)cc2c1Br
[7]
  inhibition: inactive
[8]
  inhibition: 66%
[2]
  Inhibition: 63%
[5]
  Inhibition: 92%
[9]
  inhibition: inactive

## COC(=O)N(CC(=O)O)C(=O)c1cccc2c(C(F)(F)F)c(OC)ccc12
[10]
  inhibition in vivo at 10 mg/kg/day: 76%
[11]
  inhibition in vivo at 48 mg/kg/day: 54%
[5]
  Inhibition: 58%
[12]
  inhibition in vivo at 48 mg/kg/day: 70%
[13]
  inhibition in vivo at 10 mg/kg/day: 86%

## COc1ccc2c(C(=S)N(C)CC(=O)O)c(Oc3ccccc3)ccc2c1C(F)(F)F
[14]
  inhibition in vivo at 24 mg/kg/day: 83%
[4]
  inhibition: 89%
[15]
  inhibition: inactive

## COc1ccc2c(C(=O)N(C)CC(=O)O)c(C(F)(F)F)ccc2c1C(F)(F)F
[11]
  inhibition in vivo at 48 mg/kg/day: 52%
[2]
  Inhibition: 35%
[4]
  inhibition: 32%
[5]
  Inhibition: 65%
[16]
  inhibition: inactive

## COC(=O)N(CC(=O)O)C(=O)c1c(OC)ccc2c(C(F)(F)F)c(OC)ccc12
[17]
  inhibition in vivo at 49 mg/kg/day: 33%
[4]
  inhibition: 83%
[18]
  inhibition in vivo at 49 mg/kg/day: 36%

## CCCCOc1ccc2c(C(F)(F)F)c(OC)ccc2c1C(=O)N(C)CC(=O)O
[19]
  inhibition: inactive
[17]
  inhibition in vivo at 49 mg/kg/day: 55%
[4]
  inhibition: 42%

## COC(=O)N(CC(=O)O)C(=O)c1c(OCC(F)(F)F)ccc2c(C(F)(F)F)c(OC)ccc12
[20]
  inhibition: inactive
[21]
  inhibition in vivo at 27 mg/kg/day: 49%
[2]
  Inhibition: 36%
[4]
  inhibition: 83%
[5]
  Inhibition: 64%

## CCOC(=O)NC(=O)CN(C)C(=O)c1c(F)ccc2c(C(F)(F)F)c(OC)ccc12
[10]
  inhibition in vivo at 10 mg/kg/day: 41%
[22]
  inhibition: inactive
[23]
  inhibition in vivo at 5 mg/kg/day: 36%
[24]
  inhibition in vivo at 5 mg/kg/day: 22%
[13]
  inhibition in vivo at 10 mg/kg/day: 59%

## COc1ccc2c(C(=S)N(C)CC(=O)O)c(OCC(F)(F)F)ccc2c1C(F)(F)F
[6]
  inhibition in vivo at 26 mg/kg/day: 88%
[4]
  inhibition: 86%
[25]
  inhibition in vivo at 26 mg/kg/day: 33%

## COc1ccc2c(C(=S)N(C)CC(=O)O)c(Cl)ccc2c1C(F)(F)F
[14]
  inhibition in vivo at 24 mg/kg/day: 90%
[4]
  inhibition: 81%
[15]
  inhibition: inactive

## COc1ccc2c(C(=O)N(C)CC(=O)O)c(SC)ccc2c1C(F)(F)F
[2]
  Inhibition: 41%
[4]
  inhibition: 69%
[5]
  Inhibition: 60%
[26]
  inhibition: inactive
[27]
  inhibition: inactive

## COc1ccc2c(C(=S)N(C)CC(N)=O)cc(C)cc2c1Br
[14]
  inhibition in vivo at 24 mg/kg/day: 70%
[22]
  inhibition: inactive
[28]
  inhibition: inactive
[29]
  inhibition in vivo at 24 mg/kg/day: 68%
[30]
  inhibition: inactive

## COc1ccc2c(C(=S)N(C)CC(=O)O)cc(F)cc2c1Br
[31]
  inhibition: inactive
[6]
  inhibition in vivo at 26 mg/kg/day: 86%
[4]
  inhibition: 86%

## COc1ccc2c(C(=O)N(C)CC(=O)O)cc(-c3ccccc3)cc2c1C(F)(F)F
[2]
  Inhibition: 32%
[4]
  inhibition: 63%
[5]
  Inhibition: 77%
[26]
  inhibition: inactive
[27]
  inhibition: inactive

## CCOC(=O)N(CC(=O)O)C(=O)c1c(OCC(F)(F)F)ccc2c(C(F)(F)F)c(OC)ccc12
[20]
  inhibition: inactive
[21]
  inhibition in vivo at 27 mg/kg/day: 39%
[2]
  Inhibition: 42%
[4]
  inhibition: 78%
[5]
  Inhibition: 72%

## COc1ccc2c(C(=O)N(C)CC(=O)O)c(Cc3ccccc3)ccc2c1C(F)(F)F
[4]
  inhibition: 52%
[26]
  inhibition: inactive
[27]
  inhibition: inactive

Source: ChEMBL document CHEMBL1125860 (J Med Chem, 1991)
